Measurements published in the supplement of paper PMC11208160.

Assay: recombinant UMI read abundance after kanamycin selection (control-corrected) (log10(CPM+1)); higher = more efficient recombination; extreme values may be limits of the assay; sequences stand for … in AGTGCAGAGAAAATCGGCCAGTTTTCTCTGCCTGCAGTCCGCATGCCGTGGGACCCCTTGGGTTCTAACCTGTTGCCTAGATTTATGCAGCGGACTGCCTTTCTCCCAAAGTGATAAACCGG…AGGTTGGTTTCACT; site = the 11-nt donor
Procedure, shortened: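 For the IS621 bridge recombinase, a pooled Escherichia coli screen tested donor and donor-binding-loop pairs. Cells received the pair library together with a target plasmid encoding a fixed target and T7-inducible recombinase, then went onto IPTG (0.07 mM) plus kanamycin or unselected plates in duplicate. After PCR across the donor–target junction and sequencing, recombinant UMI counts were normalized to CPM, averaged, and scaled by control-derived factors. Each value is given as log10(CPM+1).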
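Also: IS621 bridge recombinase in Escherichia coli cells against a fixed T5 target plasmid.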

Sequence | recombinant UMI read abundance (log10)
CTCATTCCATGGACCGGTTTTCCCGGTAATCCGTATTTGCT (site CTCATTCCTAG) | 0.523
CTCCAAACATGGACCGGTTTTCCCGGTAATCCGTATTTGGC (site CTCCAAACTGC) | 0
CTCCAACCATGGACCGGTTTTCCCGGTAATCCGTATTTGCC (site CTCCAACCTGG) | 0
CTCCATGCATGGACCGGTTTTCCCGGTAATCCGTATTTGTC (site CTCCATGCTGA) | 2.3
CTCCCGACATGGACCGGTTTTCCCGGTAATCCGTATTTGAG (site CTCCCAACTCT) | 0.849
CTCCCGACATGGACCGGTTTTCCCGGTAATCCGTATTTGAG (site CTCCCCACTCT) | 0.00318
CTCCCGACATGGACCGGTTTTCCCGGTAATCCGTATTTGAG (site CTCCCGACTCT) | 0.968
CTCCCGACATGGACCGGTTTTCCCGGTAATCCGTATTTGAG (site CTCCCTACTCT) | 0.0167
CTCCCTACATGGACCGGTTTTCCCGGTAATCCGTATTTGAT (site CTCCCTACTAT) | 1.01
CTCCCTACATGGACCGGTTTTCCCGGTAATCCGTATTTGAT (site CTCCCTACTCT) | 0.00726
CTCCCTACATGGACCGGTTTTCCCGGTAATCCGTATTTGAT (site CTCCCTACTGT) | 0.137
CTCCCTACATGGACCGGTTTTCCCGGTAATCCGTATTTGAT (site CTCCCTACTTT) | 0.0164
CTCCCTACATGGACCGGTTTTCCCGGTAATCCGTATTTGGG (site CTCCCTACTCA) | 0.037
CTCCCTACATGGACCGGTTTTCCCGGTAATCCGTATTTGGG (site CTCCCTACTCC) | 0.0177
CTCCCTACATGGACCGGTTTTCCCGGTAATCCGTATTTGGG (site CTCCCTACTCG) | 0.00544
CTCCCTACATGGACCGGTTTTCCCGGTAATCCGTATTTGGG (site CTCCCTACTCT) | 0.0127
CTCCCTGCATGGACCGGTTTTCCCGGTAATCCGTATTTGGC (site CTCCCTGCTGC) | 0
CTCCGACCATGGACCGGTTTTCCCGGTAATCCGTATTTGAC (site CTCCGACCTGT) | 0
CTCCTACCATGGACCGGTTTTCCCGGTAATCCGTATTTGCT (site CTACTACCTAG) | 0

Sequence | recombinant UMI read abundance (log10)
CTCCTACCATGGACCGGTTTTCCCGGTAATCCGTATTTGCT (site CTCCTACCTAG) | 0
CTCCTACCATGGACCGGTTTTCCCGGTAATCCGTATTTGCT (site CTGCTACCTAG) | 0.00362
CTCCTACCATGGACCGGTTTTCCCGGTAATCCGTATTTGCT (site CTTCTACCTAG) | 0
CTCGAAACATGGACCGGTTTTCCCGGTAATCCGTATTTGTG (site CTCGAAACTCA) | 1.06
CTCGAATCATGGACCGGTTTTCCCGGTAATCCGTATTTGCA (site CTCGAATCTTG) | 2.42
CTCGACACATGGACCGGTTTTCCCGGTAATCCGTATTTGGC (site CTCGACACTGC) | 1.04
CTCGCAACATGGACCGGTTTTCCCGGTAATCCGTATTTGTT (site CTCGCAACTAA) | 1.96
CTCGGAGCATGGACCGGTTTTCCCGGTAATCCGTATTTGAC (site CTCGGAGCTGT) | 2.63
CTCGTAACATGGACCGGTTTTCCCGGTAATCCGTATTTGAT (site CTCGTAACTAT) | 2.31
CTCGTATCATGGACCGGTTTTCCCGGTAATCCGTATTTGAG (site CTAGTATCTGT) | 0
CTCGTATCATGGACCGGTTTTCCCGGTAATCCGTATTTGAG (site CTCGTATCTCT) | 1.9
CTCTAAGCATGGACCGGTTTTCCCGGTAATCCGTATTTGTC (site CTCTAAGCTGA) | 1.81
CTCTACACATGGACCGGTTTTCCCGGTAATCCGTATTTGAT (site CTCTACACTAA) | 0.0183
CTCTACACATGGACCGGTTTTCCCGGTAATCCGTATTTGAT (site CTCTACACTAC) | 0.0649
CTCTACACATGGACCGGTTTTCCCGGTAATCCGTATTTGAT (site CTCTACACTAG) | 0.00358
CTCTACACATGGACCGGTTTTCCCGGTAATCCGTATTTGAT (site CTCTACACTAT) | 2.19
CTCTACACATGGACCGGTTTTCCCGGTAATCCGTATTTGCC (site CTCTACACTAG) | 0.72
CTCTACACATGGACCGGTTTTCCCGGTAATCCGTATTTGCC (site CTCTACACTCG) | 0.0134
